Assays:
[1] = Ratio of kcat to kinact for the compound was determined
Glycine max [2] = test: Catalytic rate constant was evaluated for the soybean sterol methyl transferase (SMT) action
Glycine max [3] = test: Catalytic competence for sterol methyl transferase (SMT) assay was determined
Glycine max [4] = test: Michaelis-Menten constant was evaluated for the soybean sterol methyl transferase (SMT) action
[5] = Apparent Ki value was calculated; set-up: species or system Glycine max
Glycine max [6] = test: Maximum rate of inactivation for the soybean sterol methyl transferase (SMT) action was determined
Glycine max [7] = test: Catalytic competence for soybean sterol methyl transferase (SMT) assay was determined
[8] = Compound (100 uM) and 26,27-DHC for 45 min
[9] = Compound (50 uM) and 26,27-DHC for 45 min

Ratio [1] | k cat (Glycine max [2]) [min⁻¹] | Activity (Glycine max [3]) | Km (Glycine max [4]) [µM] | Ki [5] [µM] | K inact (Glycine max [6]) [min⁻¹] | Activity (Glycine max [7]) | Activity [8] [%] | Activity [9] [%] | Structure (SMILES)
0.06 | 0.018 | 3e-05 | 10 | 42 | 0.29 | – | – | – | CC(CCC=C1CC1)C1CC[C@@]2(C)C3CCC4C(C)(C)C(O)CCC45CC35CCC12C (some centres not stated)
– | – | – | – | – | – | 3e-05 | – | – | C=C(CCC(C)C1CC[C@@]2(C)C3CCC4C(C)(C)C(O)CCC45CC35CCC12C)C(C)C (some centres not stated)
– | 0.6 | – | 30 | – | – | 3e-05 | 33 | 48 | CC(C)=CCCC(C)C1CC[C@@]2(C)C3CCC4C(C)(C)C(O)CCC45CC35CCC12C (some centres not stated)

Source: ChEMBL document CHEMBL1146707, “Mechanism-based active site modification of the soybean sterol methyltransferase by 26,27-dehydrocycloartenol” (Bioorg Med Chem Lett, 2004)
